Holding throughout (assay type): cell-based
Experiment [1] relates to A431 cells. The experiment can be described thus: In vitro tumor cell proliferation assay (Cell Titer-Glo) in A431 cells. To be noted: Homo sapiens, A-431, 72 h, A431 human epidermoid carcinoma overexpressing HER1; 72 hours exposure; read-out: IC50, activities in A431 cell lines. The gist of the method:
(§1)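 Viability after 72 h drug exposure at 37 °C was read as CellTiter-Glo ATP luminescence, giving IC50. Cells (2.5×10^3/well, RPMI + 10% FBS) were compound-treated one day post-seeding, 0.1% DMSO final: A431 overexpresses HER1, N87 overexpresses HER2 and HER1.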
(In ATP-based viability assays light output follows the ATP content of the culture.)

The subject of experiment [2] is H1975 cells. Put plainly: In vitro tumor cell proliferation assay (Cell Titer-Glo) in H1975 cells. To be noted: NCI-H1975; H1975 human NSCLC expressing mutant HER1 (L858R,T790M); 72 hours exposure; read-out: IC50, activities in H 1975 cell lines. The gist of the method: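 After 72 h compound exposure at 37° C (top 10 uM down to 64 pM, 0.1% DMSO), viability of EGFR L858R/T790M-mutant H1975 cells was read as ATP luminescence.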

Experiment [3] concerns N87. Put plainly: In vitro tumor cell proliferation assay (Cell Titer-Glo) in N87 cells. To be noted: N87 human gastric carcinoma overexpressing HER2 and HER1; 72 hours exposure; read-out: IC50, activities in N87 cell lines. An outline of the steps:
as §1

Usually IC50 stands for the concentration that gives 50% inhibition. On to `O=C(/C=C/CN1CCSC1)N1CCc2c(sc3ncnc(Nc4ccc(F)c(Cl)c4)c23)C1` [Example 35, N-(3-chloro-4-fluorophenyl)-7-[(2E)-4-(1,3-thiazolidin-3-yl)but-2-enoyl]-5,6,7,8-tetrahydropyrido [4′3′:4,5]thieno[2,3-d]pyrimidin-4-amine], for which the IC50 in experiment [1] lay in the range of 1000 to 10000 nM; in experiment [2], 1000 to 10000 nM; in experiment [3], 200 to 5000 nM.

As to `CN1CCN(C/C=C/C(=O)N2CCc3c(sc4ncnc(Nc5ccc(OCc6ccccn6)c(Cl)c5)c34)C2)CC1` [Example 5, N-[3-chloro-4-(pyridin-2-ylmethoxy)phenyl]-7-[(2E)-4-(4-methylpiperazin-1-yl)but-2-enoyl]-5,6,7,8-tetrahydropyrido[4′,3′:4,5]thieno[2,3-d]pyrimidin-4-amine], the IC50 in experiment [1] was less than 200 nM; in experiment [2], 1000 to 10000 nM; in experiment [3], less than 200 nM.

With `O=C(C#CCN1CCOCC1)N1CCc2c(sc3ncnc(Nc4ccc(OCc5cccc(F)c5)c(Cl)c4)c23)C1` [Example 139, N-{3-chloro-4-[(3-fluorobenzyl)oxy]phenyl}-7-(4-morpholin-4-ylbut-2-ynoyl)-5,6,7,8-tetrahydropyrido [4′,3′:4,5]thieno[2,3-d]pyrimidin-4-amine], the IC50 in experiment [1] was 200 to 1000 nM; in experiment [2] it was 200 to 1000 nM; in experiment [3], less than 200 nM.

With `C=CC(=O)N1CCc2c(sc3ncnc(Nc4ccc(F)c(Cl)c4)c23)C1` [Example 22, 7-acryloyl-N-(3-chloro-4-fluorophenyl)-5,6,7,8-tetrahydropyrido [4′,3′:4,5]thieno[2,3-d]pyrimidin-4-amine], the IC50 is less than 200 nM in experiment [1], 200 to 1000 nM in experiment [2] and less than 200 nM in experiment [3].

Regarding `CN(C)CC#CC(=O)N1CCc2c(sc3ncnc(Nc4ccc(F)c(Cl)c4)c23)C1` [Example 134, N-(3-chloro-4-fluorophenyl)-7-[4-(dimethylamino)but-2-ynoyl]-5,6,7,8-tetrahydropyrido [4′,3′:4,5]thieno[2,3-d]pyrimidin-4-amine], the IC50 in experiment [1] was 200 to 1000 nM; in experiment [2], 200 to 1000 nM; in experiment [3], less than 200 nM.

On to `O=C(/C=C/CCN1CCCCC1)N1CCc2c(sc3ncnc(Nc4ccc(F)c(Cl)c4)c23)C1` [Example 154, N-(3-chloro-4-fluorophenyl)-7-[(2E)-5-piperidin-1-ylpent-2-enoyl]-5,6,7,8-tetrahydropyrido [4′,3′:4,5]thieno[2,3-d]pyrimidin-4-amine], for which the IC50 in experiment [1] is 1000 to 10000 nM; in experiment [2], 1000 to 10000 nM; in experiment [3] it was less than 200 nM.

With `O=C(/C=C/CN1CCCCC1)N1CCc2c(sc3ncnc(Nc4ccc5c(ccn5Cc5cccc(F)c5)c4)c23)C1` [Example 106, N-[1-(3-fluorobenzyl)-1H-indol-5-yl)-7-[(2E)-4-piperidin-1-ylbut-2-enoyl]-5,6,7,8-tetrahydropyrido [4′,3′:4,5]thieno[2,3-d]pyrimidin-4-amine], the IC50 in experiment [1] was less than 200 nM; in experiment [2], 200 to 1000 nM; in experiment [3], less than 200 nM.

Take `CC(C)N(C)C/C=C/C(=O)N1CCc2c(sc3ncnc(Nc4ccc(OCc5cccnc5)c(Cl)c4)c23)C1` [Example 91, N-[3-chloro-4-(pyridin-3-ylmethoxy)phenyl]-7-{(2E)-4-[isopropyl(methyl)amino]but-2-enoyl}-5,6,7,8-tetrahydropyrido [4′,3′:4,5]thieno[2,3-d]pyrimidin-4-amine]: the figures for the IC50 in experiment [1], in experiment [2] and in experiment [3] were 1000 to 10000 nM, 200 to 1000 nM and less than 200 nM, respectively.

Consider `O=C(/C=C/Cn1ccnc1)N1CCc2c(sc3ncnc(Nc4ccc(OCc5ccccn5)c(Cl)c4)c23)C1` [Example 51, N-[3-chloro-4-(pyridin-2-ylmethoxy)phenyl]-7-[(2E)-4-(1H-imidazol-1-yl)but-2-enoyl]-5,6,7,8-tetrahydropyrido [4′,3′:4,5]thieno[2,3-d]pyrimidin-4-amine], for which the IC50 in experiment [1] was 200 to 1000 nM; in experiment [2], 1000 to 10000 nM; in experiment [3], less than 200 nM.

In the case of `O=C(/C=C/CN1CCCCCC1)N1CCc2c(sc3ncnc(Nc4ccc(OCc5ccccn5)c(Cl)c4)c23)C1` [Example 68, 7-[(2E)-4-azepan-1-ylbut-2-enoyl]-N-[3-chloro-4-(pyridin-2-ylmethoxy)phenyl]-5,6,7,8-tetrahydropyrido [4′,3′:4,5]thieno[2,3-d]pyrimidin-4-amine], the IC50 in experiment [1] was 200 to 1000 nM; in experiment [2], 200 to 1000 nM; in experiment [3] it was less than 200 nM.

For the molecule `CC1CC(C)CN(C/C=C/C(=O)N2CCc3c(sc4ncnc(Nc5ccc(OCc6ccccn6)c(Cl)c5)c34)C2)C1` (stereo not drawn) [Example 46, N-[3-chloro-4-(pyridin-2-ylmethoxy)phenyl]-7-[(2E)-4-(3,5-dimethylpiperidin-1-yl)but-2-enoyl]-5,6,7,8-tetrahydropyrido [4′,3′:4,5]thieno[2,3-d]pyrimidin-4-amine], the IC50 is 200 to 1000 nM in experiment [1], 200 to 1000 nM in experiment [2] and less than 200 nM in experiment [3].

On to `C#Cc1cccc(Nc2ncnc3sc4c(c23)CCN(C(=O)C=C)C4)c1` [Example 27, 7-acryloyl-N-(3-ethynylphenyl)-5,6,7,8-tetrahydropyrido [4′,3′:4,5]thieno[2,3-d]pyrimidin-4-amine], for which the IC50 was 1000 to 10000 nM in experiment [1], 200 to 1000 nM in experiment [2] and less than 200 nM in experiment [3].

Consider `O=C(/C=C/CN1CCCCC1)N1CCc2c(sc3ncnc(Nc4ccc5c(ccn5Cc5ccccc5)c4)c23)C1` [Example 96, N-(1-benzyl-1H-indol-5-yl)-7-[(2E)-4-piperidin-1-ylbut-2-enoyl]-5,6,7,8-tetrahydropyrido [4′,3′:4,5]thieno[2,3-d]pyrimidin-4-amine], for which the values for the IC50 in experiment [1], in experiment [2] and in experiment [3] were 1000 to 10000 nM, 200 to 1000 nM and less than 200 nM, respectively.

As for `CN1CCN(C/C=C/C(=O)N2CCc3c(sc4ncnc(Nc5ccc(F)c(Cl)c5)c34)C2)CC1` [Example 8, N-(3-chloro-4-fluorophenyl)-7-[(2E)-4-(4-methylpiperazin-1-yl)but-2-enoyl]-5,6,7,8-tetrahydropyrido[4′,3′:4,5]thieno[2,3-d]pyrimidin-4-amine], the IC50 in experiment [1] is 200 to 1000 nM; in experiment [2] it was 1000 to 10000 nM; in experiment [3], less than 200 nM.

`CCN(C)C/C=C/C(=O)N1CCc2c(sc3ncnc(Nc4ccc5c(cnn5Cc5cccc(F)c5)c4)c23)C1` [Example 115, 7-{(2E)-4-[ethyl(methyl)amino]but-2-enoyl}-N-[1-(3-fluorobenzyl)-1H-indazol-5-yl]-5,6,7,8-tetrahydropyrido [4′,3′:4,5]thieno[2,3-d]pyrimidin-4-amine]: the IC50 in experiment [1], in experiment [2] and in experiment [3] was less than 200 nM in each case.

As for `CCN(C)C/C=C/C(=O)N1CCc2c(sc3ncnc(Nc4ccc(F)c(Cl)c4)c23)C1` [Example 40, N-(3-chloro-4-fluorophenyl)-7-{(2E)-4-[ethyl(methyl)amino]but-2-enoyl}-5,6,7,8-tetrahydropyrido [4′,3′:4,5]thieno[2,3-d]pyrimidin-4-amine], the IC50 in experiment [1] is 200 to 1000 nM; in experiment [2], 200 to 1000 nM; in experiment [3] it was less than 200 nM.

In the case of `CC1CCCC(C)N1C/C=C/C(=O)N1CCc2c(sc3ncnc(Nc4ccc(F)c(Cl)c4)c23)C1` (stereo not drawn) [Example 60, N-(3-chloro-4-fluorophenyl)-7-[(2E)-4-(2,6-dimethylpiperidin-1-yl)but-2-enoyl]-5,6,7,8-tetrahydropyrido [4′,3′:4,5]thieno[2,3-d]pyrimidin-4-amine], the IC50 in experiment [1] is 200 to 1000 nM; in experiment [2], 200 to 1000 nM; in experiment [3], less than 200 nM.

With `CCN(CC)C/C=C/C(=O)N1CCc2c(sc3ncnc(Nc4ccc5c(ccn5Cc5ccccc5)c4)c23)C1` [Example 94, N-(1-benzyl-1H-indol-5-yl)-7-[(2E)-4-(diethylamino)but-2-enoyl]-5,6,7,8-tetrahydropyrido [4′,3′:4,5]thieno[2,3-d]pyrimidin-4-amine], the IC50 was 200 to 1000 nM in experiment [1], 200 to 1000 nM in experiment [2] and less than 200 nM in experiment [3].

As to `CN(C)C/C=C/C(=O)N1CCc2c(sc3ncnc(Nc4ccc(F)c(Br)c4)c23)C1` [Example 176, N-(3-bromo-4-fluorophenyl)-7-[(2E)-4-(dimethylamino)but-2-enoyl]-5,6,7,8-tetrahydropyrldo [4′,3′:4,5]thieno[2,3-d]pyrimidin-4-amine], the 50% inhibitory concentration (IC50) in experiment [1] was 200 to 1000 nM; in experiment [2], 200 to 1000 nM; in experiment [3], less than 200 nM.

Regarding `CCN(C/C=C/C(=O)N1CCc2c(sc3ncnc(Nc4ccc(F)c(Cl)c4)c23)C1)C1CCCCC1` [Example 61, N-(3-chloro-4-fluorophenyl)-7-{(2E)-4-[cyclohexyl(ethyl)amino]but-2-enoyl}-5,6,7,8-tetrahydropyrido [4′,3′:4,5]thieno[2,3-d]pyrimidin-4-amine], the IC50 was 200 to 1000 nM in experiment [1], 200 to 1000 nM in experiment [2] and less than 200 nM in experiment [3].

Regarding `CN(C)CC#CC(=O)N1CCc2c(sc3ncnc(Nc4ccc(OCc5ccccn5)c(Cl)c4)c23)C1` [Example 135, N-[3-chloro-4-(pyridin-2-ylmethoxy)phenyl]-7-[4-(dimethylamino)but-2-ynoyl]-5,6,7,8-tetrahydropyrido [4′,3′:4,5]thieno[2,3-d]pyrimidin-4-amine], the IC50 in experiment [1] is 200 to 1000 nM; in experiment [2], less than 200 nM; in experiment [3] it was less than 200 nM.

The values above are taken from US8501755B2, “Tetrahydropyridothienopyrimidine compounds and methods of use thereof” (Bayer Intellectual Property GmbH, priority 2006, dated 2013).
